Assay results taken from patent US20250197379A1 (KHR Biotec GmbH, priority 2021, published 2025).

How the values were obtained:
In vitro DMPK: CLi Human = type: in vitro ADME
KRAS G12V = molecular target: T1, KRAS G12V (Homo sapiens, UniProt P01116, G12V); assay: NanoBiT assay for RAS activation (KRAS G12V); conditions: Biochemical and cell based activity
T1 construct: K, N and HRAS G12V (full length) was cloned with Xho I and Bgl I to LgBit; expressed in transfected cells; host or cells: HeLa
Description: N-terminal LgBiT and C-terminal SmBiT construct was purchased from Promega and K, N and HRAS G12V (full length) was cloned with Xho I and Bgl I to LgBit and CRAF Ras binding domain (1-149) was cloned with EcoRI and Bgl II to SmBit. For transfections, 1 μg or 2 μg of (12 well/6 well) plasmids were transfected into cells with 0.5 mM of PEI reagent in 100 μl or 200 μl PBS. One day after transfection, cells were harvested and seeded into 96 well white plates (Greiner) or 384 well white plate (Greiner). After an additional day the medium was changed to serum free DMEM and the cells were incubated for 2 h with the compounds according to the invention. NanoGlo assay was performed according to the manufacturer's instructions. The luminescence was measured using Tecan infinite (Tecan).

elF4A1 = molecular target: T2, elF4A1 (Homo sapiens, UniProt P60842); assay: Dual luciferase assay for cap dependent translation initiation (eIF4A); conditions: Biochemical and cell based activity
T2 construct: endogenous in cells; host or cells: HeLa
T2 sequence (P60842 whole entry): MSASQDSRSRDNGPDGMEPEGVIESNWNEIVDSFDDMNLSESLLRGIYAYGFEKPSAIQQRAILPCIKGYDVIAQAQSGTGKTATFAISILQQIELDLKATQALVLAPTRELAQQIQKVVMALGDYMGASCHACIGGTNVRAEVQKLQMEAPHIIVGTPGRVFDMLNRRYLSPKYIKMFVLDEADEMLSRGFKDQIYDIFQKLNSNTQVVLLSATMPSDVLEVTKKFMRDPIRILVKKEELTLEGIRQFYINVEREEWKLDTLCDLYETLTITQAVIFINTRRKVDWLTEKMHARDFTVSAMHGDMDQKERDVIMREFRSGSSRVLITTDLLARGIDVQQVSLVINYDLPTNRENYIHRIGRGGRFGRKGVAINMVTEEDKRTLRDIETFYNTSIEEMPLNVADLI
Description: Dual luciferase assay for Cap-dependent translation initiation was performed in HeLa cells transfected with pFR_HCV_xb. […] After incubation, Dual luciferase reporter assay was performed according to the manufacturer's instruction and the luminescence was measured using a multiplate reader. Data were normalized to cells transfected with the indicated mutant and exposed to DMSO for 24 h. DMSO-treated cells were set as 1. The bars represent mean±SD from 3 independent experiments. The dot plot indicate the value from each experiment.

T1 sequence (P01116 1-188 isoform P01116-2 G12V): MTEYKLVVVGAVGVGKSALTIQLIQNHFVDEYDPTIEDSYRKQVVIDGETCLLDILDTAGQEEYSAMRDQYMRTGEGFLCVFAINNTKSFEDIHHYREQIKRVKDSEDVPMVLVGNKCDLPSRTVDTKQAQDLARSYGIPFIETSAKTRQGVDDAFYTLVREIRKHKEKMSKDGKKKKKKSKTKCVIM

| Compound | IC50 (KRAS G12V) [nM] | IC50 (elF4A1) [nM] | CLi Human (In vitro DMPK: CLi Human) [µL/min/mg] |
| --- | --- | --- | --- |
| COc1cc(OC)c2c(c1)O[C@@]1(c3ccc(Cl)cc3)[C@H](c3cccc(F)c3)C[C@H](NC(=O)N3CCN(C)CC3)[C@@]21O (single isomer, unassigned) [Compound 2] | 79 | 84 | 5.5 |
| COc1cc(OC)c2c(c1)O[C@@]1(c3ccc(Cl)cc3)[C@H](c3cccc(F)c3)C[C@H](NC(=O)N3CCCC3)[C@@]21O (single isomer, unassigned) [Compound 5] | 95 | 60 |  |
| COc1cc(OC)c2c(c1)O[C@@]1(c3ccc(Cl)cc3)[C@H](c3cccc(F)c3)C[C@H](NC(=O)NC(C)C)[C@@]21O (single isomer, unassigned) [Compound 8] | 78 | 120 | 31 |
| CCN(CC)C(=O)N[C@H]1C[C@@H](c2cccc(F)c2)[C@]2(c3ccc(Cl)cc3)Oc3cc(OC)cc(OC)c3[C@]12O (single isomer, unassigned) [Compound 11] | 94 | 75 |  |
| COc1cc(OC)c2c(c1)OC1(c3ccc(Cl)cc3)[C@@H](c3cccc(F)c3)CC(NC(=O)N(C)C)C21O (single isomer, unassigned) [Compound C2, reference compound] | 55 | 63 | 290 |
| COc1cc(OC)c2c(c1)O[C@@]1(c3ccc(C#N)cc3)[C@H](c3cccc(F)c3)C[C@H](NC(=O)N3CCOCC3)[C@@]21O [Compound 37] | 19 | 24 | 64 |
| COc1cc(OC)c2c(c1)O[C@@]1(c3ccc(Cl)cc3)[C@H](c3cccc(F)c3)C[C@H](NC(=O)N3CCS(=O)(=O)CC3)[C@@]21O [Compound 39] | 32 | 39 |  |
| COc1cc(OC)c2c(c1)O[C@@]1(c3ccc(C#N)cc3)[C@H](c3cccc(F)c3)C[C@H](NC(=O)N3CC4(COC4)C3)[C@@]21O [Compound 47] | 41 | 22 |  |

Further lines, with some results ahead:

| IC50 (KRAS G12V) [nM] | IC50 (elF4A1) [nM] | Compound | CLi Human (In vitro DMPK: CLi Human) [µL/min/mg] |
| --- | --- | --- | --- |
| 58 | 80 | COc1cc(OC)c2c(c1)O[C@@]1(c3ccc(Cl)cc3)[C@H](c3cccc(F)c3)C[C@H](NC(=O)N3CCOCC3)[C@@]21O [Compound 19] |  |
| 24 | 25 | COc1cc(OC)c2c(c1)O[C@@]1(c3ccc(C#N)cc3)[C@H](c3cccc(F)c3)C[C@H](NC(=O)N3CCC3)[C@@]21O [Compound 36] |  |
| 21 | 21 | COc1cc(OC)c2c(c1)O[C@@]1(c3ccc(C#N)cc3)[C@H](c3cccc(F)c3)C[C@H](NC(=O)N3CCN(C)CC3)[C@@]21O [Compound 38] |  |
| 97 | 143 | COc1cc(OC)c2c(c1)O[C@@]1(c3ccc(Cl)cc3)[C@H](c3cccc(F)c3)C[C@H](NC(=O)N3CCC(N(C)C)CC3)[C@@]21O [Compound 40] |  |
| 50 | 55 | COc1cc(OC)c2c(c1)O[C@@]1(c3ccc(Cl)cc3)[C@H](c3cccc(F)c3)C[C@H](NC(=O)N3CC(N(C)C)C3)[C@@]21O [Compound 41] |  |
| 48 | 54 | COc1cc(OC)c2c(c1)O[C@@]1(c3ccc(Cl)cc3)[C@H](c3cccc(F)c3)C[C@H](NC(=O)NCCO)[C@@]21O [Compound 42] |  |
| 57 | 80 | COc1cc(OC)c2c(c1)O[C@@]1(c3ccc(Cl)cc3)[C@H](c3cccc(F)c3)C[C@H](NC(=O)N3CC4CCC(C3)N4C)[C@@]21O [Compound 43] |  |
